Measurements taken from US20160303000A1, “COMPOSITION AND METHOD FOR REDUCING BACTERIAL BIOFILM FORMATION IN CONNECTION WITH A DENTAL PROCEDURE” (Loma Linda University, priority 2011, published 2016).

Test system: mixed culture consortium of three root canal isolates, E. faecalis, L. salivarius and S. gordonii
Assay: biofilm formation in mini-flow chamber system, CSLM with LIVE/DEAD staining
Assay type: cell-based
Description: First, a microbial consortium was created using bacterial strains, E. faecalis, L. salivarius and S. gordonii which were isolated from endodontic therapy associated with persistent infections. The strains were stored at −70° C. using skim milk powder (Oxoid, Cambridge, United Kingdom), diluted in double distilled water and were recovered on blood agar in an atmosphere of 5% CO2 in hydrogen at 37° C. for 24 hours. Then, four to five colonies of each strain were transferred into liquid growth medium (Todd-Hewitt broth) and incubated in an atmosphere of 5% CO2 in hydrogen at 37° C. The optical densities (OD600) of the liquid cultures were monitored until exponential growth was reached, that is, until OD600 values of 0.6±0.1. The cells were harvested by centrifugation (3000 g, five minutes at 4° C.), washed in 10 mM PBS and re-suspended in Todd-Hewitt broth to an approximate cell concentration of 1×108 ml^−1. […]
Then, the mini-flow chamber biofilms were inspected. […] CSLM images were analyzed in 2 and 3-D by using the software bioimage_L. […]
Each experiment was repeated three times and the statistical analysis was performed by two-way analysis of variance (ANOVA). Two-way ANOVA detected any significant variation among biofilms formed on surfaces pre-conditioned with the composition according to the present invention, NaOCl and the uncoated controls. […]

[Na+].[O-]Cl [NaOCl]
viability of biofilm cells (LIVE/DEAD staining) (all tests, proportions of green-viable cells): not compromised | biovolume of biofilms relative to composition-preconditioned surfaces and uncoated controls (preconditioned surfaces): intermediate
